# Source: PMC7416039 (Pharmacology Research & Perspectives, 2020)
# Experiments:
# CYP1A2 = target: T1, CYP1A2 (Homo sapiens, UniProt P05177); assay: Direct inhibition of CYP isoforms in HLM
# T1 sequence (P05177 1-516): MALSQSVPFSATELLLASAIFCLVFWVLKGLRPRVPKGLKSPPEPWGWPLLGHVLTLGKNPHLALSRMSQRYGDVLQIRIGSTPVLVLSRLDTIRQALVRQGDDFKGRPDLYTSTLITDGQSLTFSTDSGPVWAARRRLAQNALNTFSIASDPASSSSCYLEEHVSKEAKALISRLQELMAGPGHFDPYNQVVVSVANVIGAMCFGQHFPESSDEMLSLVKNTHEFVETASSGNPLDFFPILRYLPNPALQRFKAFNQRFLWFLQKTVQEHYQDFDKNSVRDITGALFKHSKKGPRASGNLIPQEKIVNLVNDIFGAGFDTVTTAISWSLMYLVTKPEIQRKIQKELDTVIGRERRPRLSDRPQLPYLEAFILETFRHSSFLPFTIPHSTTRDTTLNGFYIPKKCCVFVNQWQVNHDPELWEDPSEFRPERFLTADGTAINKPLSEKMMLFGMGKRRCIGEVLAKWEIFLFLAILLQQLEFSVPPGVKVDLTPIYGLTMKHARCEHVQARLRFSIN
# CYP2C9 [1] = target: T2, CYP2C9 (Homo sapiens, UniProt P11712); assay: Time-dependent inhibition of CYP isoforms in HLM
# T2 sequence (P11712 whole entry, canonical isoform): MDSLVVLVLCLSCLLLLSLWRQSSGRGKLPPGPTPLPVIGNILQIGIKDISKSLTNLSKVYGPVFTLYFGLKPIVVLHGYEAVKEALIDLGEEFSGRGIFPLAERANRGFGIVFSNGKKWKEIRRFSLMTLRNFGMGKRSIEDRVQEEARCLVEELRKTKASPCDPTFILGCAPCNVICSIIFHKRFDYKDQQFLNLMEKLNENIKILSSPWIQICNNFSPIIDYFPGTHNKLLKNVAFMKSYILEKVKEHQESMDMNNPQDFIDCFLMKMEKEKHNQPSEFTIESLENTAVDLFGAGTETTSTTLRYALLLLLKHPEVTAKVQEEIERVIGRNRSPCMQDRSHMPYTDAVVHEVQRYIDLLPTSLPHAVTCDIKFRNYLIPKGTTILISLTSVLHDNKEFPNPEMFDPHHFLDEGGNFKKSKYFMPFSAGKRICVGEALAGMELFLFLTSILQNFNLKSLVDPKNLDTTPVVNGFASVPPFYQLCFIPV
# CYP2C9 [2] = target: T2, CYP2C9; assay: Direct inhibition of CYP isoforms in HLM
# [3] = tested on: cDNA‐expressed human CYP enzymes (Supersomes); assay: Metabolism of 1 μmol/L secnidazole by cDNA-expressed human CYP enzymes; type: in vitro ADME; details: 0-30 min
# [4] = target: T3, human aldehyde dehydrogenase 2 (ALDH2) (Homo sapiens, UniProt P05091); assay: Reversible inhibition of ALDH2; type: biochemical
# T3 sequence (P05091 18-517): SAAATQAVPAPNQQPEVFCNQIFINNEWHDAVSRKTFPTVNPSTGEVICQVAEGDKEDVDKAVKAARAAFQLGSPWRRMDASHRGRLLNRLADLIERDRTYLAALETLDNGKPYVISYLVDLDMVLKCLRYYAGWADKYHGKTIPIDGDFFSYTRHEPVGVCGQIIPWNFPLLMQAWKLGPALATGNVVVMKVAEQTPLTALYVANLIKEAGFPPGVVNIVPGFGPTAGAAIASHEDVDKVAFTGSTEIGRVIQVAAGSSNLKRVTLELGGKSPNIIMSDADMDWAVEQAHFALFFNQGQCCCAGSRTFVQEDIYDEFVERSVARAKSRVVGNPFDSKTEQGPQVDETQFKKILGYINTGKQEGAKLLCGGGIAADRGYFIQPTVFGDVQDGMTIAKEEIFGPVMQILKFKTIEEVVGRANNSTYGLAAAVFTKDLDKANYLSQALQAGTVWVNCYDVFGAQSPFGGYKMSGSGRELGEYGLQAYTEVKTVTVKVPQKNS
# CYP2E1 [5] = target: T4, CYP2E1 (Homo sapiens, UniProt P05181); assay: Direct inhibition of CYP isoforms in HLM
# T4 sequence (P05181 whole entry, canonical isoform): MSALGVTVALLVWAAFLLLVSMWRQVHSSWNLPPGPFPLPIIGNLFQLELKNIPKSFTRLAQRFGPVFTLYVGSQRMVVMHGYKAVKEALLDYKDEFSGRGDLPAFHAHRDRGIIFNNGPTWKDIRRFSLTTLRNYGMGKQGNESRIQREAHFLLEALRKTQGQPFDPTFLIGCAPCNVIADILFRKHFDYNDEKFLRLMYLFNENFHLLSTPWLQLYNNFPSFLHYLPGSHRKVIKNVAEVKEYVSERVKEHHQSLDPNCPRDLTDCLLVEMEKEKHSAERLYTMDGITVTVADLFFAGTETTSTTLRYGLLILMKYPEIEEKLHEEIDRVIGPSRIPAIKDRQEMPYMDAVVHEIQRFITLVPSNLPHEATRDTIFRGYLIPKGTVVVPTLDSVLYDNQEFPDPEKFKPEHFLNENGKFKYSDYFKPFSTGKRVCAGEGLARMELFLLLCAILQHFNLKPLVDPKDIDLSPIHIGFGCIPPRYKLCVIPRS
# CYP2B6 = target: T5, CYP2B6 (Homo sapiens, UniProt P20813); assay: Time-dependent inhibition of CYP isoforms in HLM
# T5 sequence (P20813 1-491): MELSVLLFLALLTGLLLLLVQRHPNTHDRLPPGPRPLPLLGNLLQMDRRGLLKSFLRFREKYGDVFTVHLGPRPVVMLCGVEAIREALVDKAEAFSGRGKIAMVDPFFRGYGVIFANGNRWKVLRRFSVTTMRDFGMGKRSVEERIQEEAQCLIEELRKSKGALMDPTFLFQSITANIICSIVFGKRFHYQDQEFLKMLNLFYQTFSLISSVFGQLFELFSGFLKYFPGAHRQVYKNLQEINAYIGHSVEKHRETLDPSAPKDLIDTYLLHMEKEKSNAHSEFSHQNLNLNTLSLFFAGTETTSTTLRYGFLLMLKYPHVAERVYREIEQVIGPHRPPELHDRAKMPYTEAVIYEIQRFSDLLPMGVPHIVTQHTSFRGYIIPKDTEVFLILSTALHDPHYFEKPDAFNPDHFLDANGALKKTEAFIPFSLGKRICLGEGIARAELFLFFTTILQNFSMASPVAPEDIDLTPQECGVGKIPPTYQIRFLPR
# CYP2A6 = target: T6, CYP2A6 (Homo sapiens, UniProt P11509); assay: Direct inhibition of CYP isoforms in HLM
# T6 sequence (P11509 1-494): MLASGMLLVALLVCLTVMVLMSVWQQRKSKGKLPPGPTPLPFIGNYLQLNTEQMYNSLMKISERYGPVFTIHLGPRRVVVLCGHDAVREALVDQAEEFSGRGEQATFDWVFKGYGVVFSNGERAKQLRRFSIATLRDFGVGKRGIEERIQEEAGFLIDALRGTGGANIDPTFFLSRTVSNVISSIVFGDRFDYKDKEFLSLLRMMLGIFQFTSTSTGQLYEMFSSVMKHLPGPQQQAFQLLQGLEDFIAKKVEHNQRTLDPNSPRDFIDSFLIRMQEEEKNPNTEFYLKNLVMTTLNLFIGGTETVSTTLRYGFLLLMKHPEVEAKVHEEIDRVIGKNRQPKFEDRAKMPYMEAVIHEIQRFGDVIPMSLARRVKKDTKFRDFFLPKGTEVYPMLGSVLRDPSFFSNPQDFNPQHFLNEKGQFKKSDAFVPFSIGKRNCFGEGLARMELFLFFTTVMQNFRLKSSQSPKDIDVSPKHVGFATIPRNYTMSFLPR
# CYP2C19 [6] = target: T7, CYP2C19 (Homo sapiens, UniProt P33261); assay: Time-dependent inhibition of CYP isoforms in HLM
# T7 sequence (P33261 whole entry, canonical isoform): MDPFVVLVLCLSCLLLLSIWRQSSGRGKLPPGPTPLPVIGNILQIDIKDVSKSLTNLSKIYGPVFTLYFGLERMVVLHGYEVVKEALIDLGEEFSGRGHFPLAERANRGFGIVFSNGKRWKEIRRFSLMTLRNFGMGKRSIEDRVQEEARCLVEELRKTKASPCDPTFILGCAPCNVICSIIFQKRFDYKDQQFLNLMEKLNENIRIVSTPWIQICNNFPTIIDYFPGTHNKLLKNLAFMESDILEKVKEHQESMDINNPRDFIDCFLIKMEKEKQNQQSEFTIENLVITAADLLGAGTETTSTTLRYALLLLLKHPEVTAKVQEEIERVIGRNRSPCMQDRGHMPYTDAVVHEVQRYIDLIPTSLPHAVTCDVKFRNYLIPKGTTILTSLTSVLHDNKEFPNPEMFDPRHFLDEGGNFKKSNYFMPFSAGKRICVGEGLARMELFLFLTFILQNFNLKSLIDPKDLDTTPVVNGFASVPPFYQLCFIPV
# CYP2E1 [7] = target: T4, CYP2E1; assay: Time-dependent inhibition of CYP isoforms in HLM
# CYP2C19 [8] = target: T7, CYP2C19; assay: Direct inhibition of CYP isoforms in HLM
compound,measurement,setting,value
Cc1ncc([N+](=O)[O-])n1CC(C)O (stereo not drawn) [secnidazole],IC50,CYP1A2,> 5 mM
same,IC50,CYP2C9 [1],> 500 µM
same,IC50,CYP2C9 [2],> 5 mM
same,metabolism in cDNA‐expressed enzymes,[3],did not demonstrate conclusive evidence of any metabolism
same,IC50,[4],503 µM
same,% Remaining,[4]; secnidazole 0.2 μmol/L,94%
same,NADH,[4]; secnidazole 0.2 μmol/L,117 nmol/min/mg
same,% Remaining,[4]; secnidazole 0.5 μmol/L,90%
same,NADH,[4]; secnidazole 0.5 μmol/L,112 nmol/min/mg
same,% Remaining,[4]; secnidazole 1.4 μmol/L,90%
same,NADH,[4]; secnidazole 1.4 μmol/L,112 nmol/min/mg
same,% Remaining,[4]; secnidazole 4.1 μmol/L,100%
same,NADH,[4]; secnidazole 4.1 μmol/L,125 nmol/min/mg
same,% Remaining,[4]; secnidazole 12.3 μmol/L,110%
same,NADH,[4]; secnidazole 12.3 μmol/L,137 nmol/min/mg
same,% Remaining,[4]; secnidazole 37 μmol/L,96%
same,NADH,[4]; secnidazole 37 μmol/L,120 nmol/min/mg
same,% Remaining,[4]; secnidazole 111.1 μmol/L,79%
same,NADH,[4]; secnidazole 111.1 μmol/L,99 nmol/min/mg
same,% Remaining,[4]; secnidazole 333.3 μmol/L,63%
same,NADH,[4]; secnidazole 333.3 μmol/L,79 nmol/min/mg
same,% Remaining,[4]; secnidazole 1000 μmol/L,32%
same,NADH,[4]; secnidazole 1000 μmol/L,39 nmol/min/mg
same,IC50,CYP2E1 [5],> 5 mM
same,IC50,CYP2B6,> 500 µM
same,IC50,CYP2A6,> 5 mM
same,direct inhibition (in words),"CYP2A6; HLM, CYP2A6",some clear concentration‐dependent inhibition at higher concentration
same,IC50,CYP2C19 [6],> 1 mM
same,IC50,CYP2E1 [7],> 500 µM
same,IC50,CYP2C19 [8],3.87 mM
